Test results taken from patent publication US3996361A, “N^6 -Substituted-9-[3-(4-phenyl-piperazino)-propyl]-adenines” (Boehringer Mannheim G.m.b.H., priority 1974, dated 1976).

Test system: PCA reaction induced by reaginic (IgE-like) antibodies to egg albumin
Assay: inhibition of the passive cutaneous anaphylactic (PCA) reaction in rats induced by reaginic antibodies to egg albumin
Type: in vivo, rat
Method: Diethylcarbamazin, i.e. 1-diethylcarbamoyl-4-methylpiperazine, was used as a comparison compound. Specifically, tests were run as follows:
Serum containing reaginic (IgE-like) antibody to egg albumin was prepared by injecting rats intramuscularly with 0.1 ml of a solution of the antigen (10 mg/ml) in saline together with 0.5 ml of Bordetella pertussis vaccine (Behring; 2 × 10^10 organisms/ml). 9-14 Days later the animals were bled from the abdominal aorta; the serum was pooled and stored at -20° C until required. The titer of the serum, i.e. the highest dilution inducing passive cutaneous anaphylaxis (PCA) in the rat following a 48-hour latent period, was between 1:8 and 1:32. For use in these experiments the serum was diluted 1:24.
The animals were anesthetized with 2,2-dichloro-1,1-difluoroethyl-methyl ether, sold under the trademark Penthrane, and were sensitized by injecting 0.1 ml of the antiserum into the shaved abdominal flanks. After 48 hours for reaginic PCA, the animals were given an intravenous injection of 1 ml of saline solution containing 0.5% by weight of egg albumin and 0.25% by weight of Evans blue.
After having killed and exsanguinated the animals, the size in square millimeters and the intensity, in arbitary scores, of the resulting blue spot were determined. The product of these two parameters was used to determine the degree of the reaction and the degree of reaction with no active material was taken as the standard against which to measure % inhibition of the anaphylactic reaction.
6 Animals were used per dose level and for control.
In some instances the test material was injected intravenously (i.v.) immediately before the antigen, using a solution in water containing 0.5% HCl and 2% of dimethylformamide, and in other instances intraperitoneally (i.p.) 20 minutes before the antigen, using a suspension in water containing 1% of methylcellulose. The volume of the injection was varied to give the indicated dosage of active material.

[1] = 3 mg/kg i.p. 20 min. before antigen (ovalbumin 5 mg/animal i.v.)
[2] = 3 mg/kg i.v. immediately before antigen (ovalbumin 5 mg/animal i.v.)

SMILES	% Inhibition of PCA, i.p. (60 mg/kg i.p. 20 min. before antigen (ovalbumin 5 mg/animal i.v.))	% Inhibition of PCA, i.v. (60 mg/kg i.v. immediately before antigen (ovalbumin 5 mg/animal i.v.))	% Inhibition of PCA, i.p. [1]	% Inhibition of PCA, i.v. [2]
CCN(CC)C(=O)N1CCN(C)CC1 [Diethylcarbamazin, 1-diethylcarbamoyl-4-methylpiperazine, reference compound]	19%	58%		
CCCCNc1ncnc2c1ncn2CCCN1CCN(c2ccccc2)CC1 [Ex. 1 (ab), N^6-n-butyl-9-[3-(4-phenyl-piperazino)-propyl]-adenine]			69%	
CCNc1ncnc2c1ncn2CCCN1CCN(c2ccccc2)CC1 [Ex. 1 (d), N^6-ethyl-9-[3-(4-phenyl-piperazino)-propyl]-adenine]			41%	91%
CNc1ncnc2c1ncn2CCCN1CCN(c2ccc(F)cc2)CC1 [Ex. 1 (q), N^6-methyl-9-{3-[4-(4-fluorophenyl)-piperazino]-propyl}-adenine]			57%	
CNc1ncnc2c1ncn2CCCN1CCN(c2ccc(C)cc2)CC1 [Ex. 1 (y), N^6-methyl-9-{3-[4-(4-methylphenyl)-piperazino]-propyl}-adenine]			33%	61%
CCCNc1ncnc2c1ncn2CCCN1CCN(c2ccccc2)CC1 [Ex. 2, N^6-n-Propyl-9-[3-(4-phenyl-piperazino)-propyl]-adenine]			59%	83%
